Test system: leukaemia L1210
Test: Antitumour activity against leukaemia L1210 (survival)
Assay type: in vivo, BDF₁ mice
Parameters: MST: unit not given here
Conditions: Table 15: BDF mice, L1210 s.c., i.p. days 1, 2, 3, MMC 5 mg/kg, in combination CRN 200 mg/kg
Protocol: Antitumour effects. Male Swiss Schneider mice of 27g body weight were used for the sarcoma S180 experiments: female C₅₇Bl mice of 20g body weight were used for the B16 melanoma experiments; […]; and C₅₇Bl mice of 20g body weight were used for the Lewis lung experiments.
L1210. Spleens were removed from animals 7 days after inoculation of L1210 cells and these spleens were finely minced with 1:100 isotonic saline. 0.1 ml of this spleen and leukaemia L1210 cell suspension was then injected subcutaneously into the flank of each BDF₁.

CO[C@@]12[C@H](COC(N)=O)C3=C(C(=O)C(C)=C(N)C3=O)N1C[C@@H]1N[C@@H]12 [MMC, Mitomycin C]
SURVIVORS 14d (8/group): 1 | MST (median survival time, control 7.1): 7.0
